From patent publication US20180179524A1, “COMPOSITIONS AND METHODS FOR INHIBITING CELL PROLIFERATION” (President and Fellows of Harvard College, priority 2015, published 2018)

System: luciferase-based reporter constructs in S2R+ cells
Assay: Luciferase-based mutation reporter assay (sgRNA mutation efficiency)
Assay type: cell-based, Drosophila
Details: sgRNAs with no mismatches targeting luciferase-based reporter in S2R+ cells; mutation rate = 1/Firefly luciferase normalized to Renilla
Method: The luciferase reporter vector was constructed by PCR amplifying the metallothionein promoter from pMK33 and luciferase gene from pGL3 (Table 1) and combining these with annealed oligos containing a gRNA target site (Table 1 and Table 2) and a custom made cloning vector using Golden Gate assembly.
Luciferase assays were performed by transfecting S2R+ cells with the relevant pl018 plasmid, luciferase reporter and pRL-TK (Promega) (to allow normalization of transfection efficiencies between samples) in 96 well plates using Effectene Transfection Reagent (Qiagen) according to the manufacturer's recommendations. Twenty-four hours after transfection, CuSO4 was added to the cell media at a final concentration of 140 μM and cells were incubated for a further 16 hours.
Firefly and Renilla luciferase readings were taken using the Dual-Glo Luciferase Assay System (Promega) according to manufacturer's instructions and a SpectraMax Paradigm Multi-Mode Microplate Detection Platform (Molecular Devices).
Because the rate of mutations varies widely between different sgRNAs (25-27), whether efficiency could be predicted based on the sgRNA sequence was tested. 75 additional sgRNAs were generated, each targeting luciferase-based reporter constructs with no mismatches and tested mutation efficiency for each. Using this panel of sgRNAs and associated efficiencies, the presence or absence of a correlation between GC content and mutation rate was examined. […] Next, whether a more general sequence-based approach was tested for its ability to improve efficiency prediction. The nucleotide content of all 75 sgRNAs was examined, considering each position separately and generated a probability matrix linking nucleotide content with mutation rate (FIG. 1, panel B). This was then used to generate predicted efficiency scores based on sgRNA sequence. […] Note that sgRNAs targeting close to the 3′ end of genes or with apparent viability effects were not included in this analysis. Finally, predicted scores were generated for all sgRNA target sites in the Drosophila genome and annotated.

AAACAGAAGGTCTTCCCCAA: sgRNA targeting a luciferase-based reporter construct, no mismatches (chemistry not given here)
Mean efficiency: 0.3046

AAAGAGCTGCGGGCCGGGCG: sgRNA targeting a luciferase-based reporter construct, no mismatches (chemistry not given here)
Mean efficiency: 0.06954

AACGACATCACGGTCCATGC: sgRNA targeting a luciferase-based reporter construct, no mismatches (chemistry not given here)
Mean efficiency: 0.2424

AACTCAAAGACCCGCTTTCG: sgRNA targeting a luciferase-based reporter construct, no mismatches (chemistry not given here)
Mean efficiency: 0.1408

AAGATAAGTTCTCTCCTATT: sgRNA targeting a luciferase-based reporter construct, no mismatches (chemistry not given here)
Mean efficiency: 0.04594

AAGTAGGCTCTCCTGAATGG: sgRNA targeting a luciferase-based reporter construct, no mismatches (chemistry not given here)
Mean efficiency: 0.1224

ACCAGCATATGCCGGCCTGC: sgRNA targeting a luciferase-based reporter construct, no mismatches (chemistry not given here)
Mean efficiency: 0.767

ACCCTGTCCACTCATATATG: sgRNA targeting a luciferase-based reporter construct, no mismatches (chemistry not given here)
Mean efficiency: 0.4172

ACCGAAAGTCGCGCCGGACG: sgRNA targeting a luciferase-based reporter construct, no mismatches (chemistry not given here)
Mean efficiency: 0.2496

ACCGCCAAACGGACCGCTTA: sgRNA targeting a luciferase-based reporter construct, no mismatches (chemistry not given here)
Mean efficiency: 0.3105

ACGCGCACGGGTCTCACGCC: sgRNA targeting a luciferase-based reporter construct, no mismatches (chemistry not given here)
Mean efficiency: 0.3288

AGACTGGTTTCCACCCGCTC: sgRNA targeting a luciferase-based reporter construct, no mismatches (chemistry not given here)
Mean efficiency: 1.298

AGGGAGTCCGCATAGGCGGC: sgRNA targeting a luciferase-based reporter construct, no mismatches (chemistry not given here)
Mean efficiency: 0.1819

AGTCCTCACCGTGGGGCACC: sgRNA targeting a luciferase-based reporter construct, no mismatches (chemistry not given here)
Mean efficiency: 0.09069

ATAGTTCCCTCCATGCCCTT: sgRNA targeting a luciferase-based reporter construct, no mismatches (chemistry not given here)
Mean efficiency: 0.07786

ATATCGGAGTCGGCCCAACC: sgRNA targeting a luciferase-based reporter construct, no mismatches (chemistry not given here)
Mean efficiency: 0.4113

ATCTGACCTCCCGGCTAATT: sgRNA targeting a luciferase-based reporter construct, no mismatches (chemistry not given here)
Mean efficiency: 0.05737

ATCTGGTCAGGACGCAAAGC: sgRNA targeting a luciferase-based reporter construct, no mismatches (chemistry not given here)
Mean efficiency: 0.1406

ATCTTCCCGTCGACATAGCC: sgRNA targeting a luciferase-based reporter construct, no mismatches (chemistry not given here)
Mean efficiency: 0.1609
